Patent US20250064762A1, “A SUBSTITUTED AROMATIC DICARBONIC ACID AMIDE AS AN INHIBITOR OF THE FERROPTOSIS SUPPRESSOR PROTEIN-1 (FSP1)” (JULIUS-MAXIMILIANS-UNIVERSITÄT WÜRZBURG, priority 2021, published 2025)

Key:
murine PGP = molecular target: T1, murine PGP (Mus musculus, UniProt Q8CHP8); assay: In vitro phosphoglycolate phosphatase assay (malachite green); format: biochemical
T1 construct: made in house
T1 sequence (Q8CHP8 1-321): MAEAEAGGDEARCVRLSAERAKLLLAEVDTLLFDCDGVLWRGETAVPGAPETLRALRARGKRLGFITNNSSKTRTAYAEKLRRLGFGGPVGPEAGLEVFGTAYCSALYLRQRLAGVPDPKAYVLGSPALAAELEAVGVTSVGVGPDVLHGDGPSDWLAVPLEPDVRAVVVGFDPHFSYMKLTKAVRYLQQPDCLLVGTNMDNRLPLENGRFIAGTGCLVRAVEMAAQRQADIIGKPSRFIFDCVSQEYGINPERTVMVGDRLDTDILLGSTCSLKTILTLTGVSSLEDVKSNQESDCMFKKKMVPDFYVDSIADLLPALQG
Protocol: Recombinant, purified murine phosphoglycolate phosphatase (PGP) was expressed and purified as described (Seifried et al., 2014). Experiments were performed in TNM30 (30 mM triethanolamine, 30 mM NaCl, 5 mM MgCl2; PH 7.5), supplemented with 0.01% (v/v) Triton X-100 and 5 mM dithiothreitol (DTT). Assays were conducted at room temperature in a final reaction volume of 50 μL in 96-well microtiter plates. PGP (5.7 nM) was pre-incubated with the compounds or the DMSO solvent control for 10 min, and enzyme reactions were started by the addition of the substrate phosphoglycolate (PG, 200 μM). Buffer without enzyme served as a background control. Inorganic phosphate release from PG was detected with malachite green solution (Biomol Green; Enzo Life Sciences). The absorbance at 620 nm (A620) was measured on an Envision 2104 multilabel microtiter plate reader (Perkin Elmer Life Sciences). Released phosphate was determined by converting the values to nmol Pi with a phosphate standard curve. Data were analyzed with GraphPad Prism version 7.0.5. For IC50 determinations, loginhibitor versus response was calculated for a Hill slope of −1.
Free inorganic phosphate released by PG dephosphorylation was quantified using malachite green.

[1] = system: GPX4-KO/FSP1-OE HT1080 cells; assay: Viability of FSP1-dependent GPX4-KO cells with serial dilutions of CPBA, no FINs; format: cell-based, human; settings: serial dilutions of CPBA, no FINs
Protocol: The following HT1080 fibrosarcoma cell lines were generated using CRISPR/Cas9 technology, as previously described (Doll et al., 2019): HT1080 GPX4-knockout (KO) cells (maintained in the presence of 100 μM α-tocopherol); HT1080 GPX4 knockout cells overexpressing FSP1 (GPX4-KO/FSP1-OE); GPX4-KO cells overexpressing FSP1 and re-expressing GPX4 (GPX4-KO/FSP1-OE/GPX4-OE); HT1080 FSP1-WT or FSP1-KO cells; and HT1080 FSP1-KO cells reconstituted with either FSP1-WT or FSP1-G2A. LOX-IMVI (BRAF V600E heterozygous human melanoma cells) expressing either the Venus mock vector or FSP1-Venus (Doll et al., 2019) were grown in RPMI-1640 supplemented with 10% FCS, 2 mM L-glutamine and Pen/Strep.
Next, we tested the effect of CPBA on ferroptotic cell death in GPX4-deficient HT1080 cells whose survival depends on the expression of FSP1 in order to suppress ferroptosis in the absence of GPX4. GPX4 knockout cells overexpressing FSP1 (GPX4-KO/FSP1-OE), or GPX4-KO cells overexpressing FSP1 and re-expressing GPX4 (GPX4-KO/FSP1-OE/GPX4-OE) were incubated with serial dilutions of CPBA. Note that no ferroptosis inducers (FINs) were added. Protein expression was confirmed by Western Blot as described above (see FIG. 11).

HT1080 cells = assay: Western blot of ferroptosis regulators GPX4, ACSL4 and FSP1; format: cell-based, human; settings: 100 μM CPBA; 16 h; liproxstatin-1 100 nM
Protocol: Cultured cells were lysed in 50 mM Tris, pH 7.5; 150 mM NaCl; 1% (v/v) Triton X-100; 0.5% (w/v) sodium deoxycholate; 0.1% (w/v) sodium dodecyl sulfate; 5 μg/mL aprotinin, 1 μg/mL leupeptin, 1 μg/mL pepstatin, and 1 mM 4-(2-aminoethyl)benzenesulfonyl fluoride (Pefabloc). Protein concentrations were determined using the Micro BCA Protein Assay Kit (Thermo Fisher Scientific). Proteins were separated by SDS-PAGE, transferred to nitrocellulose membranes by semidry-blotting, and incubated with the indicated antibodies.
Western blots were quantified using the public domain NIH Image program (developed at the U.S. National Institutes of Health, http://rsb.info.nih.gov/nih-image/). Statistical analysis was performed using GraphPad Prism version 7.05 or 9.1.2 (GraphPad, San Diego, CA, USA).
HT1080 cells were cultured in the presence of liproxstatin-1 (100 nM), and incubated for 16 h with the solvent control DMSO (0.1%), RSL3 (1 μM), FIN56 (10 μM), or BSO (100 μM) in the presence of either 0.1% DMSO (−) or 100 μM CPBA (+). Cells were lysed and probed with the indicated antibodies as described above. […] Quantification of relative intensity of Western Blot bands was performed as described above (see FIG. 7).

[2] = system: HT1080, Du145 or PC3 cells; assay: Cell viability with CPBA alone, no ferroptosis inducers; format: cell-based; settings: 16 h
Protocol: (§1) Cells were seeded onto 96-well plates (5,000 cells per well), and treated with serial dilutions of ferroptosis-inducing compounds (erastin, BSO, RSL3, FIN56) or cytotoxic drugs (staurosporine, nocodazole, tunicamycin, paclitaxel, etoposide, menadione, rotenone, FCCP, carboplatin) in the absence or presence of CPBA or iFSP1 (100 μM or 10 μM, respectively; unless stated otherwise) or the DMSO solvent control. Ferroptotic cell death was evaluated by incubating in the absence or presence of liproxstatin-1 (100 nM), ferrostatin-1 (200 nM), or deferoxamine (100 μM). Cell viability was assessed after 16 h using AquaBluer as an indicator of viable cells according to the manufacturer's recommendations (MultiTarget Pharmaceuticals, LLC). Fluorescence (excitation, 540 nm; emission, 590 nm) was analyzed on a Clariostar microplater reader.
To study the effect of increasing CPBA concentrations in the absence of ferroptosis inducers on the viability of HT1080, Du145 or PC3 cells. Cells were incubated with the indicated concentrations of CPBA alone or in the presence of ferroptosis inhibitors deferoxamine (DFO, an iron-chelator and ferroptosis inhibitor); ferrostatin (fer, a ferroptosis inhibitor); liproxstatin-1 (lip-1, a ferroptosis inhibitor); or zVAD-FMK (a pan-caspase and apoptosis inhibitor), and cell viability was analyzed after 16 h.

[3] = system: mouse embryonic fibroblasts (MEFs); assay: FIN-induced ferroptosis in Pgp-wildtype or heterozygous Pgp-inactivated MEFs; format: cell-based
Protocol: as §1
The above experiment was repeated in mouse embryonic fibroblasts (MEFs) generated from Pgp-wildtype (Pgp^fl/fl) or heterozygous Pgp-inactivated mouse embryos (Pgp^fl/D34N).

## O=C(Nc1ccccc1C(=O)O)c1ccc(Oc2ccc(C(=O)Nc3ccccc3C(=O)O)cc2)cc1 [CPBA, 2-[[4-[4-[(2-carboxyphenyl)carbamoyl]phenoxy]benzoyl]amino]-benzoic acid]
Murine PGP
  inhibition of PGP: inhibitor of PGP
[1]
  cell death of GPX4-KO, FSP1-dependent cells: die in a CPBA concentration-dependent manner
HT1080 cells
  expression of GPX4, ACSL4 and FSP1: not affected by the presence of CPBA
[2]; 400 μM CPBA
  cell death with the compound alone: Non-ferroptotic, non-apoptotic cell death is observed
[2]; no ferroptosis inducers
  concentrations at which the compound alone is not cytotoxic: up to 200 μM
[3]
  sensitization to FIN-induced ferroptosis in Pgp^fl/fl and Pgp^fl/D34N cells: able to sensitize both Pgp^fl/fl and Pgp^fl/D34N cells to FIN-induced ferroptosis
